Among the data in ChEMBL document CHEMBL3817739, “Synthesis and cytotoxic evaluation of several oleanolic aciduracil/thymine conjugates” (Medchemcomm, 2016) are IC50 values, retold here.

The test system of one assay is A549. Put plainly: Cytotoxicity against human A549 cells assessed as inhibition of cell proliferation after 72 hrs by MTT assay. The format is functional, cell-based. As to conditions: A549, 72 h. (Tetrazolium assays rely on reduction of a dye to a coloured formazan, in cell work by metabolically active cells.)
The test system of the next assay is HepG2. Put plainly: Cytotoxicity against human HepG2 cells assessed as inhibition of cell proliferation after 72 hrs by MTT assay. Type of assay: functional, cell-based. As to conditions: HepG2, 72 h; call rule not given here.
Assay [1] is described as follows: Cytotoxicity against human BGC823 cells assessed as inhibition of cell proliferation after 72 hrs by MTT assay. The format is functional, cell-based. As to conditions: BGC-823, 72 h.
A short description of assay [2]: Cytotoxicity against human PC3 cells assessed as inhibition of cell proliferation after 72 hrs by MTT assay. Type of assay: functional, cell-based, PC-3.
For a further assay, the system named is MCF7. Put plainly: Cytotoxicity against human MCF7 cells assessed as inhibition of cell proliferation after 72 hrs by MTT assay. As to conditions: MCF7, 72 h. The format is functional, cell-based.
The mark [3] stands for this setting: Homo sapiens, PC-3, 72 h, read-out: IC50.

For the compound `CC1(C)CC[C@]2(C(=O)OCCCCn3ccc(=O)n(CCCCOC(=O)[C@]45CCC(C)(C)C[C@H]4C4=CC[C@@H]6[C@@]7(C)CC[C@H](O)C(C)(C)[C@@H]7CC[C@@]6(C)[C@]4(C)CC5)c3=O)CC[C@]3(C)C(=CC[C@@H]4[C@@]5(C)CC[C@H](O)C(C)(C)[C@@H]5CC[C@]43C)[C@@H]2C1`, the IC50 was found to be 4.09 µM with A549; 3.95 µM with HepG2; 0.15 µM in assay [1]; 4.79 µM in assay [2] (setting [3]); 130 µM in the assay on MCF7.

Turning to `CC1(C)CC[C@]2(C(=O)OCCn3ccc(=O)n(CCOC(=O)[C@]45CCC(C)(C)C[C@H]4C4=CC[C@@H]6[C@@]7(C)CC[C@H](O)C(C)(C)[C@@H]7CC[C@@]6(C)[C@]4(C)CC5)c3=O)CC[C@]3(C)C(=CC[C@@H]4[C@@]5(C)CC[C@H](O)C(C)(C)[C@@H]5CC[C@]43C)[C@@H]2C1`, the IC50 in the assay with A549 is 9.21 µM; with HepG2, 111 µM; in assay [1] it was 0.86 µM; in assay [2] (pc-3), “Not Active”; with MCF7, 29.8 µM.

Consider `CC1(C)CC[C@]2(C(=O)OCCCCn3ccc(=O)[nH]c3=O)CC[C@]3(C)C(=CC[C@@H]4[C@@]5(C)CC[C@H](O)C(C)(C)[C@@H]5CC[C@]43C)[C@@H]2C1`, for which the IC50 turned out to be 0.11 µM in the assay on A549; 4.21 µM in the assay with HepG2; 0.93 µM in assay [1]; 1.45 µM in assay [2] (setting [3]); 70.4 µM in the assay on MCF7.

As to `CC1(C)CC[C@]2(C(=O)O)CC[C@]3(C)C(=CC[C@@H]4[C@@]5(C)CC[C@H](O)C(C)(C)[C@@H]5CC[C@]43C)[C@@H]2C1` [OLEANOLIC_ACID], the IC50 in the assay with A549 was determined as 16.3 µM; with HepG2 it was 15.9 µM; in assay [1], 23.7 µM; in assay [2] (setting [3]), 72.7 µM; in the assay on MCF7, 12.6 µM.

As for `Cc1cn(CCCCCCCCOC(=O)[C@]23CCC(C)(C)C[C@H]2C2=CC[C@@H]4[C@@]5(C)CC[C@H](O)C(C)(C)[C@@H]5CC[C@@]4(C)[C@]2(C)CC3)c(=O)[nH]c1=O`, the IC50 turned out to be 1.11 µM in the assay on A549; 8.72 µM in the assay with HepG2; 0.29 µM in assay [1]; 0.23 µM in assay [2] (setting [3]); 16.1 µM with MCF7.

On to `Cc1cn(CCOC(=O)[C@]23CCC(C)(C)C[C@H]2C2=CC[C@@H]4[C@@]5(C)CC[C@H](O)C(C)(C)[C@@H]5CC[C@@]4(C)[C@]2(C)CC3)c(=O)n(CCOC(=O)[C@]23CCC(C)(C)C[C@H]2C2=CC[C@@H]4[C@@]5(C)CC[C@H](O)C(C)(C)[C@@H]5CC[C@@]4(C)[C@]2(C)CC3)c1=O`, for which the IC50 is 0.79 µM in the assay with A549; 5.19 µM in the assay on HepG2; 1.89 µM in assay [1]; 1.16 µM in assay [2] (setting [3]); 3.02 µM with MCF7.

For `Cc1cn(CCCCCCOC(=O)[C@]23CCC(C)(C)C[C@H]2C2=CC[C@@H]4[C@@]5(C)CC[C@H](O)C(C)(C)[C@@H]5CC[C@@]4(C)[C@]2(C)CC3)c(=O)[nH]c1=O`, the IC50 with A549 was under 0.1 µM; in the assay on HepG2 it was 5.09 µM; in assay [1] it was 0.37 µM; in assay [2] (setting [3]), 8.37 µM; in the assay on MCF7, 4.01 µM.

As to `CC1(C)CC[C@]2(C(=O)OCCn3ccc(=O)[nH]c3=O)CC[C@]3(C)C(=CC[C@@H]4[C@@]5(C)CC[C@H](O)C(C)(C)[C@@H]5CC[C@]43C)[C@@H]2C1`, the IC50 in the assay with A549 amounted to 0.36 µM; in the assay with HepG2, 15.2 µM; in assay [1] it was 0.37 µM; in assay [2] (setting [3]), 9.61 µM; in the assay with MCF7, 45.9 µM.

For `CC1(C)CC[C@]2(C(=O)OCCCCCCn3ccc(=O)n(CCCCCCOC(=O)[C@]45CCC(C)(C)C[C@H]4C4=CC[C@@H]6[C@@]7(C)CC[C@H](O)C(C)(C)[C@@H]7CC[C@@]6(C)[C@]4(C)CC5)c3=O)CC[C@]3(C)C(=CC[C@@H]4[C@@]5(C)CC[C@H](O)C(C)(C)[C@@H]5CC[C@]43C)[C@@H]2C1`, the IC50 in the assay on A549 was 6.98 µM; in the assay on HepG2 it was 0.99 µM; in assay [1], 0.68 µM; in assay [2] (setting [3]) it was 15.5 µM; in the assay on MCF7, under 0.1 µM.

On to `Cc1cn(CCOC(=O)[C@]23CCC(C)(C)C[C@H]2C2=CC[C@@H]4[C@@]5(C)CC[C@H](O)C(C)(C)[C@@H]5CC[C@@]4(C)[C@]2(C)CC3)c(=O)[nH]c1=O`, for which the IC50 in the assay with A549 turned out to be 35.1 µM; with HepG2, 5.41 µM; in assay [1] it was 0.16 µM; in assay [2] (setting [3]) it was 1.93 µM; in the assay with MCF7, 10.2 µM.

Take `CC1(C)CC[C@]2(C(=O)OCCCCCCCCn3ccc(=O)[nH]c3=O)CC[C@]3(C)C(=CC[C@@H]4[C@@]5(C)CC[C@H](O)C(C)(C)[C@@H]5CC[C@]43C)[C@@H]2C1`: the IC50 in the assay on A549 is 8.47 µM; with HepG2, 1.05 µM; in assay [1], 14.9 µM; in assay [2] (setting [3]), 20.9 µM; in the assay on MCF7 it was under 0.1 µM.

Consider `CC1(C)CC[C@]2(C(=O)OCCCCCCCCn3ccc(=O)n(CCCCCCCCOC(=O)[C@]45CCC(C)(C)C[C@H]4C4=CC[C@@H]6[C@@]7(C)CC[C@H](O)C(C)(C)[C@@H]7CC[C@@]6(C)[C@]4(C)CC5)c3=O)CC[C@]3(C)C(=CC[C@@H]4[C@@]5(C)CC[C@H](O)C(C)(C)[C@@H]5CC[C@]43C)[C@@H]2C1`, for which the IC50 in the assay on A549 is 37.1 µM; in the assay on HepG2, 10.3 µM; in assay [1], 0.27 µM; in assay [2] (setting [3]), 22.2 µM; with MCF7, 3.78 µM.

For the compound `Cc1cn(CCCCCCCCOC(=O)[C@@]23CCC(C)(C)C[C@@H]2C2=CC[C@H]4[C@]5(C)CC[C@@H](O)C(C)(C)[C@H]5CC[C@]4(C)[C@@]2(C)CC3)c(=O)n(CCCCCCCCOC(=O)[C@@]23CCC(C)(C)C[C@@H]2C2=CC[C@H]4[C@]5(C)CC[C@@H](O)C(C)(C)[C@H]5CC[C@]4(C)[C@@]2(C)CC3)c1=O`, the IC50 was under 0.1 µM in the assay with A549; 4.83 µM in the assay with HepG2; 3.11 µM in assay [1]; 20 µM in assay [2] (setting [3]); 4.45 µM with MCF7.

For the compound `Cc1cn(CCCCCCOC(=O)[C@]23CCC(C)(C)C[C@H]2C2=CC[C@@H]4[C@@]5(C)CC[C@H](O)C(C)(C)[C@@H]5CC[C@@]4(C)[C@]2(C)CC3)c(=O)n(CCCCCCOC(=O)[C@]23CCC(C)(C)C[C@H]2C2=CC[C@@H]4[C@@]5(C)CC[C@H](O)C(C)(C)[C@@H]5CC[C@@]4(C)[C@]2(C)CC3)c1=O`, the IC50 is under 0.1 µM in the assay with A549; 4.84 µM in the assay on HepG2; 0.62 µM in assay [1]; 0.87 µM in assay [2] (setting [3]); 33.6 µM in the assay on MCF7.

As to `Cc1cn(CCCCOC(=O)[C@]23CCC(C)(C)C[C@H]2C2=CC[C@@H]4[C@@]5(C)CC[C@H](O)C(C)(C)[C@@H]5CC[C@@]4(C)[C@]2(C)CC3)c(=O)[nH]c1=O`, the IC50 in the assay with A549 was found to be 4.73 µM; with HepG2, 2.41 µM; in assay [1], 1.13 µM; in assay [2] (setting [3]) it was 0.43 µM; in the assay on MCF7, 1.03 µM.

Consider `O=c1[nH]cc(F)c(=O)[nH]1` [FLUOROURACIL], for which the IC50 with A549 worked out at 22.6 µM; with HepG2 it was 55.7 µM; in assay [1], 8.82 µM; in assay [2] (setting [3]), 12.2 µM; in the assay with MCF7, 21.5 µM.

Broadly, the IC50 is the concentration at which inhibition is half-maximal.
